This note sets out measurements from patent US20250109140A1, “5-[5-(PIPERIDIN-4-YL)THIENO[3,2-C]PYRAZOL-2-YL]INDAZOLE DERIVATIVES AND RELATED COMPOUNDS AS MODULATORS FOR SPLICING NUCLEIC ACIDS AND FOR THE TREATMENT OF PROLIFERATIVE DISEASES” (REMIX THERAPUTICS INC., priority 2022, published 2025).

Format in all cases: cell-based
The test system of experiment [1] is Target C mRNA. In words: Splicing RT-qPCR gene panel, Target C canonical junction (CJ) mRNA. The settings on record: Homo sapiens; Table 8; larger gene panel, decrease in CJ mRNA levels. Here is the method: (§1) Compounds described herein were used to modulate RNA transcript abundance in cells. The expression of a target mRNA was measured by detecting the formation of an exon-exon junction in the canonical transcript (CJ). A compound mediated exon-inclusion event was detected by observing an increase in formation of a new junction with an alternative exon (AJ). Real-time qPCR assays were used to detect these splicing switches and interrogate the potency of various compounds towards different target genes. A high-throughput real time quantitative PCR (RT-qPCR) assay was developed to measure these two isoforms of the mRNA (CJ and AJ) for exemplary genes, such as HTT, SMN2, and MYB, together with a control housekeeping gene, GAPDH or GUSB or PPIA, used for normalization. Briefly, the A673 or K562 cell line was treated with various compounds described herein (e.g., compounds of Formula (I)). After treatment, the levels of the HTT, MYB, or SMN2 mRNA targets were determined from each sample of cell lysate by cDNA synthesis followed by qPCR.
(§2) The A673 cell line was cultured in DMEM with 10% FBS. Cells were diluted with full growth media and plated in a 96-well plate (15,000 cells in 100 ul media per well). The plate was incubated at 37° C. with 5% CO2 for 24 hours to allow cells to adhere. An 11-point 3-fold serial dilution of the compounds was made in DMSO then diluted in media in an intermediate plate. Compounds were transferred from the intermediate plate to the cell plate with the top dose at a final concentration of 10 uM in the well. Final DMSO concentration was kept at or below 0.25%. The cell plate was returned to the incubator at 37° C. with 5% CO2 for an additional 24 hours.
(§3) The K562 cell line was cultured in IMDM with 10% FBS. For K562, cells were diluted with full growth media and plated in either a 96-well plate (50,000 cells in 50 uL media per well) or a 384-well plate (8,000-40,000 cells in 45 uL media per well). An 11-point 3-fold serial dilution of the compounds were made in DMSO then diluted in media in an intermediate plate. Compound was transferred from the intermediate plate to the cell plate with the top dose at a final concentration of 10 uM in the well. Final DMSO concentration was kept at or below 0.25%. Final volume was 100 uL for 96-well plate and 50 uL for 384-well plate. The cell plate was then placed in an incubator at 37° C. with 5% CO2 for 24 hours.
(§4) The cells were then gently washed with 50 uL-100 uL cold PBS before proceeding to addition of lysis buffer. 30 uL-50 uL of room temperature lysis buffer with DNAse I (and optionally RNAsin) was added to each well. Cells were shaken/mixed thoroughly at room temperature for 5-10 minutes for lysis to take place and then 3 uL-5 uL of room temperature stop solution was added and wells were shaken/mixed again. After 2-5 minutes, the cell lysate plate was transferred to ice for RT-qPCR reaction setup. The lysates could also be frozen at-80° C. for later use.
(§5) In some cases, a direct lysis buffer was used. An appropriate volume of 3× lysis buffer (10 mM Tris, 150 mM NaCl, 1.5%-2.5% Igepal and 0.1-1 U/uL RNAsin, pH 7.4) was directly added to either K562 or A673 cells in media and mixed by pipetting 3 times. The plates were then incubated at room temperature with shaking/rocking for 20-50 minutes to allow for lysis to take place. After this time, the cell lysate plate was transferred to ice to set up for the RT-qPCR reactions. The lysates could also be frozen at −80° C. for later use.
(§6) To set up 10 uL RT-qPCR reactions, cell lysates were transferred to 384-well qPCR plates containing the master mix according to the table below. The plates were sealed, gently vortexed, and spun down before the run. The volumes were adjusted accordingly in some instances where the reaction was carried in 20 μL. The table below summarizes the components of the RT-qPCR reactions:
(§7) The RT-qPCR reaction was performed using a QuantStudio (ThermoFisher) under the following fast cycling conditions. […]

Experiment [2] deals with SMN2 mRNA. The experiment can be described thus: Splicing RT-qPCR gene panel, SMN2 canonical junction (CJ) mRNA. The settings on record: Homo sapiens; Table 8; larger gene panel, decrease in CJ mRNA levels. Here is the method: as §1, §2, §3, §4, §5, §6, §7
For experiment [3], the system named is MYB mRNA. In words: Splicing RT-qPCR assay, MYB canonical (CJ) and alternative (AJ) junction mRNA. The settings on record: Homo sapiens; for EC50: AC50 = 50% response in AJ mRNA increase. Here is the method: as §1, §2, §3, §4, §5, §6, §7
Experiment [4] deals with HTT mRNA. The experiment can be described thus: Splicing RT-qPCR assay, HTT canonical (CJ) and alternative (AJ) junction mRNA. The settings on record: Homo sapiens; for EC50: AC50 = 50% response in AJ mRNA increase. Here is the method: as §1, §2, §3, §4, §5, §6, §7
Where [5] appears, read: Table 7, RT-qPCR, A673 or K562 cells, 24 hours treatment.
[6] abbreviates: Table 7, IC50 = 50% response in CJ mRNA decrease, RT-qPCR, A673 or K562 cells, 24 hours treatment, read-out: MYB CJ.
The mark [7] stands for this setting: Table 8, larger gene panel, decrease in CJ mRNA levels, read-out: MYB CJ IC50.
The mark [8] stands for this setting: Table 7, IC50 = 50% response in CJ mRNA decrease, RT-qPCR, A673 or K562 cells, 24 hours treatment, read-out: HTT CJ.
Setting [9] is: Table 8, larger gene panel, decrease in CJ mRNA levels, read-out: HTT CJ IC50.

Where two headings read alike, the source gives them in different places.

In the case of `Cn1cc2cc(-c3nc4sc(N5CCNC(C)(C)C5)cc4s3)cc(F)c2n1` [Compound 142, 5-[5-(3,3-dimethylpiperazin-1-yl)thieno[2,3-d][1,3]thiazol-2-yl]-7-fluoro-2-methylindazole], the IC50 in experiment [1] was 1000 to 10000 nM; in experiment [2], less than 100 nM; in experiment [3] (setting [6]), 100 to 1000 nM; in experiment [3] (setting [7]), 100 to 1000 nM; in experiment [4] (setting [8]) it was 100 to 1000 nM; in experiment [4] (setting [9]), 100 to 1000 nM. Also, the EC50 in experiment [3] (setting [5]) and in experiment [4] (setting [5]) was 100 to 1000 nM each time.

For `Cn1cc2cc(-c3nc4sc(N5CCC(NC(C)(C)C)C5)cc4s3)cc(F)c2n1` (centres unmarked) [Compound 143, N-tert-butyl-1-[2-(7-fluoro-2-methylindazol-5-yl)thieno[2,3-d][1,3]thiazol-5-yl]pyrrolidin-3-amine], the IC50 is 1000 to 10000 nM in experiment [1]; 100 to 1000 nM in experiment [2]; 1000 to 10000 nM in experiment [3] (setting [6]); 100 to 1000 nM in experiment [3] (setting [7]); 1000 to 10000 nM in experiment [4] (setting [8]); 1000 to 10000 nM in experiment [4] (setting [9]). Further, the EC50 in experiment [3] (setting [5]) lay in the range of 100 to 1000 nM; in experiment [4] (setting [5]) it was 1000 to 10000 nM.

For the compound `Cn1cc2cc(-c3nc4sc(N5CCN6CCCC6C5)cc4s3)cc(F)c2n1` (centres unmarked) [Compound 144, 7-fluoro-5-(5-[hexahydro-1H-pyrrolo[1,2-a]pyrazin-2-yl]thieno[2,3-d][1,3]thiazol-2-yl)-2-methylindazole], the IC50 in experiment [1] is greater than 10000 nM; in experiment [2] it was less than 100 nM; in experiment [3] (setting [6]), 1000 to 10000 nM; in experiment [3] (setting [7]), 100 to 1000 nM; in experiment [4] (setting [8]), 1000 to 10000 nM; in experiment [4] (setting [9]), 100 to 1000 nM. The concentration for a half-maximal effect (EC50) in experiment [3] (setting [5]) and in experiment [4] (setting [5]) was 100 to 1000 nM throughout.

Regarding `CN1CCC(N(C)c2cc3sc(-c4cc(F)c5nn(C)cc5c4)nc3s2)CC1` [Compound 145, N-[2-(7-fluoro-2-methylindazol-5-yl)thieno[2,3-d][1,3]thiazol-5-yl]-N,1-dimethylpiperidin-4-amine], the IC50 in experiment [1] was greater than 10000 nM; in experiment [2], 100 to 1000 nM; in experiment [3] (setting [6]), 1000 to 10000 nM; in experiment [3] (setting [7]), 1000 to 10000 nM; in experiment [4] (setting [8]), greater than 10000 nM; in experiment [4] (setting [9]), greater than 10000 nM. In addition, the concentration for a half-maximal effect (EC50) in experiment [3] (setting [5]) is 1000 to 10000 nM; in experiment [4] (setting [5]), greater than 10000 nM.

As to `CN1CC2(C1)CN(c1cc3sc(-c4cc(F)c5nn(C)cc5c4)nc3s1)C2` [Compound 146, 7-fluoro-2-methyl-5-(5-[6-methyl-2,6-diazaspiro[3.3]heptan-2-yl]thieno[2,3-d][1,3]thiazol-2-yl)indazole], the IC50 is 100 to 1000 nM in experiment [1], less than 100 nM in experiment [2], 100 to 1000 nM in experiment [3] (setting [7]) and 100 to 1000 nM in experiment [4] (setting [9]).

On to `Cn1cc2cc(-c3nc4sc(N5CCNCC5)c(Cl)c4s3)cc(F)c2n1` [Compound 147], for which the IC50 in experiment [1] is 1000 to 10000 nM; in experiment [2], less than 100 nM; in experiment [3] (setting [6]), 100 to 1000 nM; in experiment [3] (setting [7]), less than 100 nM; in experiment [4] (setting [8]), 100 to 1000 nM; in experiment [4] (setting [9]) it was 100 to 1000 nM. The EC50 in experiment [3] (setting [5]) was less than 100 nM; in experiment [4] (setting [5]), 100 to 1000 nM.
